Source: patent US9428452B2, “Compounds” (Glaxo Group Limited, priority 2012, dated 2016)
Marks after values point to notes of the source that are not given here. Each block holds one compound with its values, some of them ahead of it.

What was measured:
[1] = target: T1, Human RORγ Ligand Binding Domain (RORγ-LBD) (Homo sapiens, UniProt P51449); experiment: Dual Fluorescence Energy Transfer (FRET) assay: co-activator SRC1(2) peptide interaction with RORγ-LBD; type: biochemical; conditions: RORγ-LBD / SRC1(2) peptide, read-out: mean pIC50 (converted)
T1 construct: His6 with thrombin site) (N); made in house; host or cells: E. coli BL21(DE3), modified pET21a vector
T1 sequence (P51449 263-518): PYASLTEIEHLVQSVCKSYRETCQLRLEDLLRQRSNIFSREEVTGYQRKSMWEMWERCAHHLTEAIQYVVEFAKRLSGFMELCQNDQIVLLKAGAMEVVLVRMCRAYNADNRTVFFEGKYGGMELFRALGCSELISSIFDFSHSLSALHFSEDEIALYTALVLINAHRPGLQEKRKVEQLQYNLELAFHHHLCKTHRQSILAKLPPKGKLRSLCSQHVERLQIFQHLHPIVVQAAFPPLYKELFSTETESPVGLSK
Source text: Dual Fluorescence Energy Transfer (FRET) Assay
This assay is based on the knowledge that nuclear receptors interact with cofactors (transcription factors) in a ligand dependent manner. RORγ is a typical nuclear receptor in that it has an AF2 domain in the ligand binding domain (LBD) which interacts with co-activators.
This assay measures ligand-mediated interaction of the co-activator peptide with the purified bacterial-expressed RORγ ligand binding domain (RORγ-LBD) to indirectly assess ligand binding. RORγ has a basal level of interaction with the co-activator SRC1(2) in the absence of ligand, thus, it is possible to find ligands that inhibit or enhance the RORγ/SRC1(2) interaction.
Human RORγ Ligand Binding Domain (RORγ-LBD) was expressed in E. coli strain BL21(DE3) as an amino-terminal polyhistidine tagged fusion protein. DNA encoding this recombinant protein was sub-cloned into a modified pET21a expression vector (Novagen).
Approximately 50 g E. coli cell pellet was resuspended in 300 mL of lysis buffer (30 mM imidazole pH 7.0 and 150 mM NaCl). Cells were lysed by sonication and cell debris was removed by centrifugation for 30 minutes at 20,000 g at 4° C. […] The clarified lysate was loaded onto a column (XK-26) packed with ProBond Nickel Chelating resin (InVitrogen), pre-equilibrated with 30 mM imidazole pH 7.0 and 150 mM NaCl. After washing to baseline absorbance with the equilibration buffer, the column was developed with a gradient from 30 to 500 mM imidazole pH 7.0. Column fractions containing the RORγ-LBD protein were pooled and concentrated to a volume of 5 mLs. The concentrated protein was loaded onto a Superdex 200 column pre-equilibrated with 20 mM Tris-Cl pH 7.2 and 200 mM NaCl. The fractions containing the desired RORγ-LBD protein were pooled together.
Purified RORγ-LBD was buffer exchanged by exhaustive dialysis [3 changes of at least 20 volumes (>8000×)] against PBS [100 mM NaPhosphate, pH 8 and 150 mM NaCl]. […] The modified RORγ-LBD was dialyzed against 2 buffer changes—TBS pH 8.0 containing 5 mM DTT, 2 mM EDTA and 2% sucrose—each at least 20 times of the volume. The modified protein was distributed into aliquots, frozen on dry ice and stored at −80° C. The biotinylated RORγ-LBD was subjected to mass spectrometric analysis to reveal the extent of modification by the biotinylation reagent.
Biotinylated SRC1(2) solution was prepared by adding an appropriate amount of biotinylated SRC1(2) from the 100 uM stock solution to a buffer containing 10 mM of freshly added DTT from solid to give a final concentration of 40 nM. An appropriate amount of Europium labeled Streptavidin was then added to the biotinylated SRC1(2) solution in a tube to give a final concentration of 10 nM. The tube was inverted gently and incubated for 15 minutes at room temperature. Twenty-fold excess biotin from the 10 mM stock solution was added and the tube was inverted gently and incubated for 10 minutes at room temperature.
Biotinylated RORγ-LBD solution was prepared by adding an appropriate amount of biotinylated RORγ-LBD from the stock solution to a buffer containing 10 mM of freshly added DTT from solid to give a final concentration of 40 nM. An appropriate amount of APC labeled Streptavidin was then added to the biotinylated RORγ-LBD solution in a tube to give a final concentration of 20 nM. The tube was inverted gently and incubated for 15 minutes at room temperature. Twenty-fold excess biotin from the 10 mM stock solution was then added and the tube was inverted gently and incubated for 10 minutes at room temperature.
The reaction mixtures were incubated for 5 minutes. […] The plates were incubated for 1 hour and then read on ViewLux in Lance mode for EU/APC.

[2] = test system: IL-17A secreted from antiCD3/CD28 stimulated Peripheral Blood Mononuclear cells (PBMC); experiment: Peripheral Blood Mononucleocyte Cell Assay (PBMC Assay - IL-17); type: cell-based; conditions: Homo sapiens, 48 h, IL-17A release, read-out: mean pIC50 (converted)
Procedure: Peripheral Blood Mononucleocvte Cell Assay (PBMC Assay—IL-17) […]
This assay is designed to measure levels of IL-17A secreted from antiCD3/CD28 stimulated frozen Peripheral Blood Mononuclear cells (PBMC) isolated from human blood with the aim of identifying inhibitors of IL-17A release.
2. The compounds for screening are dispensed into a master plate at 10 mM top concentration which are serially diluted 1:3 across 11 points in DMSO, then 500 nL is transferred into a 384-well flat-bottomed Greiner plate to which 50 uL of cell suspension is added: for the single shot screening the highest concentration of compound is 10^−5M; for 11 point full curve dose response studies the highest concentration is 10^−4 M.
As a low control, DMSO (as supplied, for example, by VWR) (final concentration 1%) in column 6 (16 points).
As a high control, 5-(4-fluorophenyl)-2-ureidothiophene-3-carboxamide (obtainable from, for example, Sigma) at a final concentration of 10^−4 M in DMSO should be used in column 18 (16 points).
9. Make the cell suspension at the concentration 8×10^5 cells/mL to give a final number of 40,000 cells/well.
1. Add well mixed CD3/CD28 Dynabeads (as supplied, for example, by Dynal) to achieve ratio bead:cell=2:1 (ie. a dilution of 1 in 20). Mix thoroughly.
2. Dispense the suspension into the 384 Assay Plates using Multidrop (50 uL per well). If the volume of cell suspension is large, mix the suspension after dispensing into every other plate.
3. Cover the plates with the lids and place them to the humidified incubator (37° C., 5% CO2) for 48 hours.
1. Transfer 10 uL of supernatants from assay plates to the MSD plates using Cybiwell. Ensure that all wells are covered with the solution. Tap the plate gently, if some of the wells are not covered with the supernatant.
3. Add 10 uL of MSD IL-17 detecting antibody using multidrop (1 ug/mL in D-PBS without Ca^2+ and Mg^2+ (supplied, for example, by Gibco)).
4. Cover the plates with adhesive foil and incubated with shaking for 3 hours at room temperature
7. Add 35 uL of MSD Read Buffer T×2 using multidrop.
8. Read plates on MSD MA6000 reader using the 384 well plate protocol as per manufacturer's instructions.

[3] = test system: IL-17A mRNA expression; experiment: Ex-vivo human skin model, IL-17A mRNA expression; type: cell-based; conditions: for Percentage of inhibition of IL-17A mRNA expression: Th17 cytokine cocktail 24 h, RT-PCR
Procedure: (§1) Fresh ex vivo human skin from healthy bariatric patients, that underwent abdominoplasty skin removal, was de-fatted and dermatomed at 750 μm. Dermatomed skin was incubated twice for 5-10 minutes at room temperature in PBS containing a antibiotic/antimycotic solution: Fungizone (Invitrogen #15290018), PSG (Fisher #BW17718R) and Gentamicin (Invitrogen #15750060). Skin was treated aseptically from this point on. Individual skin samples were obtained by 10 mm punch biopsy and placed in a 0.4 μm PCF membrane transwell (Millicell #PIHP01250) containing 30 μl of a 64% bovine collagen solution. After a 30 minute incubation at 37° C., which allows the collagen solution time to set, skin samples on transwells were transferred to 6-well plates (1 sample per well) and the lower chamber filled with 1 ml complete media (Cornification Media)+hydrocortisone (final concentration of 0.4 μg/ml) with or without test compounds at 10 μM (day −3) and allowed to rest overnight (16-18 h) at 37° C. Next, media was aspirated from the lower chamber, replaced with 1 ml complete media without hydrocortisone and incubated at 37° C. for 1 h. This constituted a ‘wash’ step. Following the hydrocortisone washout, media was again aspirated from the lower chamber and replaced with 1.0 ml complete media without hydrocortisone with or without GSK compounds at 10 μM (day −2). Cultures were incubated at 37° C. in a humidified chamber and media was refreshed one more day (day-1). The following day (day-0), cultures were stimulated for 24 h with a freshly made Th17 cytokine cocktail (CD3, 1 μg/ml, CD28, 2 μg/ml, IL-1b, 10 ng/ml, IL-6, 5 ng/ml, TGFb, 1 ng/ml, IL-21, 10 ng/ml, anti-IL-4, 1 μg/ml and anti-INFg, 1 μg/ml) with or without test compounds at 10 μM. Upon harvest (day +1), skin samples were minced with a razor blade and transferred to 1.5 ml RNAse-free tubes with 1 ml RNAlater solution until later analysis by RT-PCR (stored at −80 C).
(§2) Total RNA was isolated from about 30-40 mg of tissue using Qiagen's (Cat #74106) Mini RNA Isolation kit. Briefly, tissue was homogenized in the Precellys-24 machine using 300 μL of RLT buffer supplemented with 1% 2-Beta-Mercapto-Ethanol at 6300 rpm for 30 seconds for 6 cycles with a 2-minute ice break. 600 μL of water containing Proteinase K was added to the homogenate and digested at 55 C for 15 minutes. Digested tissue was spun down for 3 minutes at 10,000×g and the supernantant was used for RNA isolation using Qiagen's RNeasy mini columns according to manufacturer's protocol. 100 ng of RNA was used as template in a 20 μL PCR volume using Applied Biosciences RNA-to-CT 1 Step kit (AB Catalog #4392938) as well as the specific TaqMan probe for each gene to be quantified. Life Technologies FAM labeled Probes Catalog Numbers are as follows: ACTb=Hs01060665_g1, IL-17A=Hs00174383_m1, IL-17F=Hs00369400_m1, IL-22=Hs01574154_m1. All probes used (except for ACTb) expand an Exon. Applied Biosciences' Master Mix has a ROX dye internal control. OneStepPlus PCR machine was used for both the RT step and the 40 amplification cycles. RNA levels of gene of interest's relative expression were calculated using the Delta Delta CT formula.
(§3) First delta: Normalized to ACTb gene expression
(§4) Second delta: Normalized to sample 13 (Day 0+DMSO) for the gene of interest.

[4] = test system: IL-17F mRNA expression; experiment: Ex-vivo human skin model, IL-17F mRNA expression; type: cell-based; conditions: for Percentage of inhibition of IL-17F mRNA expression: Th17 cytokine cocktail 24 h, RT-PCR
Procedure: as §1, §2, §3, §4

[5] = test system: IL-22 mRNA expression; experiment: Ex-vivo human skin model, IL-22 mRNA expression; type: cell-based; conditions: for Percentage of inhibition of IL-22 mRNA expression: Th17 cytokine cocktail 24 h, RT-PCR
Procedure: as §1, §2, §3, §4

[6] = four different donors, compound 10 μM

Compound: Cc1ccc(N(CC(C)C)S(=O)(=O)c2cc(F)c(OCC3CCOCC3)c(F)c2)c(C)c1 [Example E23]
- IC50 [1]: ≤ 15.8 nM

Compound: Cc1ccc(N(CC(C)C)S(=O)(=O)c2ccc(OCC3CCOCC3)c(C3CC3)c2)c(C)c1 [Example E21, 3-cyclopropyl-N-(2,4-dimethylphenyl)-N-isobutyl-4-((tetrahydro-2H-pyran-4-yl)methoxy)benzenesulfonamide]
- IC50 [1]: ≤ 15.8 nM
- IC50 [2]: < 1000 nM

Compound: CCc1ccc(N(CC(C)C)S(=O)(=O)c2ccc([C@H](O)CN3CCOCC3)c(CO)c2)cc1 [Example E125, N-(4-ethylphenyl)-4-(1-hydroxy-2-morpholinoethyl)-3-(hydroxymethyl)-N-isobutylbenzenesulfonamide]
- IC50 [1]: 31.6 nM
- Percentage of inhibition of IL-17A mRNA expression ([3]; Skin Donor 1, compound 10 μM): 65% *
- Percentage of inhibition of IL-17A mRNA expression ([3]; Skin Donor 2, compound 10 μM): 92% *
- Percentage of inhibition of IL-17A mRNA expression ([3]; Skin Donor 3, compound 10 μM): 65% *
- Percentage of inhibition of IL-17A mRNA expression ([3]; Skin Donor 4, compound 10 μM): 93% *
- gene transcription of il17a (result in words) [3, 6]: inhibited
- Percentage of inhibition of IL-17F mRNA expression ([4]; Skin Donor 1, compound 10 μM): 39%
- Percentage of inhibition of IL-17F mRNA expression ([4]; Skin Donor 2, compound 10 μM): 89% *
- Percentage of inhibition of IL-17F mRNA expression ([4]; Skin Donor 3, compound 10 μM): 45%
- Percentage of inhibition of IL-17F mRNA expression ([4]; Skin Donor 4, compound 10 μM): 80% *
- gene transcription of il17f (result in words) [4, 6]: inhibited
- Percentage of inhibition of IL-22 mRNA expression ([5]; Skin Donor 1, compound 10 μM): 52% *
- Percentage of inhibition of IL-22 mRNA expression ([5]; Skin Donor 2, compound 10 μM): 52%
- Percentage of inhibition of IL-22 mRNA expression ([5]; Skin Donor 3, compound 10 μM): 20%
- Percentage of inhibition of IL-22 mRNA expression ([5]; Skin Donor 4, compound 10 μM): 70% *
- gene transcription of il22 (result in words) [5, 6]: inhibited

Further lines, with some results ahead:

- IC50 [1]: ≤ 15.8 nM
Compound: Cc1ccc(N(CC(C)C)S(=O)(=O)c2ccc(OCC3CCOCC3)c(Cl)c2)c(C)c1 [Example E20]

- IC50 [1]: ≤ 15.8 nM
Compound: Cc1ccc(N(CC(C)C)S(=O)(=O)c2ccc(OCC3CCOCC3)cc2O)c(C)c1 [Example E26, N-(2,4-dimethylphenyl)-2-hydroxy-N-isobutyl-4-((tetrahydro-2H-pyran-4-yl)methoxy)benzenesulfonamide]

- IC50 [1]: ≤ 15.8 nM
Compound: Cc1ccc(N(CC(C)C)S(=O)(=O)c2ccc(OCC3CCOCC3)cc2C)c(C)c1 [Example E25]

- IC50 [1]: ≤ 15.8 nM
Compound: Cc1ccc(N(CC(C)C)S(=O)(=O)c2ccc(OCC3CCOCC3)cc2)c(C)c1 [Example E12]
- IC50 [2]: < 1000 nM
